Among the data in patent publication US8993756B2 (Merck Sharp & Dohme Corp., priority 2011, dated 2015) are IC50 values, retold here.

In one test the target is JAK3 (Homo sapiens (Human), UniProt P52333). The test can be described thus: Jak Biochemical HTRF Assay (JAK3). Conditions: recombinant GST-tagged catalytic domain, [ATP] 2.9 μM.
Another test addresses JAK2 (Homo sapiens (Human), UniProt O60674). Briefly: Jak Biochemical HTRF Assay (JAK2). As to conditions: recombinant GST-tagged catalytic domain, [ATP] 8.5 μM.

Sequence of JAK2 (O60674 849-1124): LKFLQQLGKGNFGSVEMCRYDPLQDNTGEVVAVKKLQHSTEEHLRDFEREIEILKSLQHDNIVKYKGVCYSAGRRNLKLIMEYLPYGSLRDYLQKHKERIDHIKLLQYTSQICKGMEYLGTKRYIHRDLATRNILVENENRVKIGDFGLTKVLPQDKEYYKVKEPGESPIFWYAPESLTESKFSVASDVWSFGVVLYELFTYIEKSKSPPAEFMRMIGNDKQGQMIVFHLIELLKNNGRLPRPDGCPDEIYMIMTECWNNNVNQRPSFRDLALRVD
Sequence of JAK3 (P52333 822-1111): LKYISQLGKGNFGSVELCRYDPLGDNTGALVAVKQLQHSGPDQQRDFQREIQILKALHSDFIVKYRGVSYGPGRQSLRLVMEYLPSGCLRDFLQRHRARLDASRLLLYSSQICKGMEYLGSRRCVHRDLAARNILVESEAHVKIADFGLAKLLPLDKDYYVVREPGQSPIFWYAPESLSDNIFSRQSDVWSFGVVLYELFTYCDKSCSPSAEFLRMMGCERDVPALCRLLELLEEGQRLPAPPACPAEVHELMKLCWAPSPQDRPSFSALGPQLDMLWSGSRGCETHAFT

As for `C=C(C)C(=O)Nc1cccc(-c2ncnc3[nH]cc(C(=O)OCC)c23)c1` [Example 4-1, Ethyl-4-{3-[(2-methylacryloyl)amino]phenyl}-7H-pyrrolo[2,3-d]pyrimidine-5-carboxylate], the values for the IC50 at JAK3 and at JAK2 were 0.15 nM and > 1480 nM, respectively.

For the compound `C=C(C)C(=O)Nc1cccc(-c2ncnc3[nH]cc(C(=O)OCC)c23)c1F` [Example 4-2, Ethyl 4-{2-fluoro-3-[(2-methylacryloyl)amino]phenyl}-7H-pyrrolo[2,3-d]pyrimidine-5-carboxylate], the IC50 on JAK3 was 4 nM; at JAK2 it was > 1500 nM.

In the case of `C=C(C)C(=O)Nc1cncc(-c2ncnc3[nH]cc(C(=O)OCC)c23)c1` [Example 4-3, Ethyl 4-{5-[(2-methylacryloyl)amino]pyridin-3-yl}-7H-pyrrolo[2,3-d]pyrimidine-5-carboxylate], the values for the IC50 on JAK3 and on JAK2 were 0.085 nM and > 1500 nM, respectively.

Regarding `C=C(C)C(=O)Nc1cc(-c2ncnc3[nH]cc(C(=O)OCC)c23)cc(OC)n1` [Example 4-4, Ethyl 4-{2-methoxy-6-[(2-methylacryloyl)amino]pyridin-4-yl}-7H-pyrrolo[2,3-d]pyrimidine-5-carboxylate], the results for the IC50 on JAK3 and at JAK2 were 0.049 nM and > 1500 nM, respectively.

Regarding `C=CC(=O)Nc1cccc(-c2ncnc3[nH]cc(C(=O)OCC)c23)c1` [Example 4-5, ethyl 4-[3-(acryloylamino)phenyl]-7H-pyrrolo[2,3-d]pyrimidine-5-carboxylate], the IC50 was determined as 0.04 nM on JAK3 and 790 nM at JAK2.

Take `C/C=C/C(=O)Nc1cccc(-c2ncnc3[nH]cc(C(=O)OCC)c23)c1` [Example 4-6, ethyl 4-{3-[(2E)-but-2-enoylamino]phenyl}-7H-pyrrolo[2,3-d]pyrimidine-5-carboxylate]: the IC50 amounted to 1.6 nM on JAK3 and 483 nM at JAK2.

With `CCOC(=O)c1c[nH]c2ncnc(-c3cccc(NC(=O)CC)c3)c12` [Example 4-7, ethyl 4-[3-(propanoylamino)phenyl]-7H-pyrrolo[2,3-d]pyrimidine-5-carboxylate], the 50% inhibitory concentration (IC50) at JAK3 (given as range class) is 10 to 500 nM; on JAK2 (given as range class), > 500 nM.

As for `C=C(CC)C(=O)Nc1cccc(-c2ncnc3[nH]cc(C(=O)OCC)c23)c1` [Example 4-8, ethyl 4-{3-[(2-methylidenebutanoyl)amino]phenyl}-7H-pyrrolo[2,3-d]pyrimidine-5-carboxylate], the values for the IC50 on JAK3 and at JAK2 were 0.61 nM and > 1500 nM, respectively.

As for `C=C(C)C(=O)Nc1cc(-c2ncnc3[nH]cc(C(=O)OCC)c23)ccc1Cl` [Example 4-9, ethyl 4-{4-chloro-3-[(2-methylacryloyl)amino]phenyl}-7H-pyrrolo[2,3-d]pyrimidine-5-carboxylate], the IC50 is 0.013 nM at JAK3 and > 1500 nM at JAK2.

On to `C=C(C)C(=O)Nc1cc(-c2ncnc3[nH]cc(C(=O)OCC)c23)ccc1C` [Example 4-10], for which the results for the IC50 at JAK3 and at JAK2 were 0.15 nM and > 1500 nM, respectively.

Turning to `C=CC(=O)Nc1cc(-c2ncnc3[nH]cc(C(=O)OCC)c23)ccc1C` [Example 4-11, ethyl 4-[3-(acryloylamino)-4-methylphenyl]-7H-pyrrolo[2,3-d]pyrimidine-5-carboxylate], the IC50 is 0.033 nM at JAK3 and > 1500 nM at JAK2.

On to `C=CC(=O)Nc1cccc(-c2ncnc3[nH]cc(C(=O)OCC)c23)c1C` [Example 4-12, ethyl 4-[3-(acryloylamino)-2-methylphenyl]-7H-pyrrolo[2,3-d]pyrimidine-5-carboxylate], for which the results for the IC50 at JAK3 and on JAK2 were 0.19 nM and > 1500 nM, respectively.

In the case of `C=C(C)C(=O)Nc1cccc(-c2ncnc3[nH]cc(C(=O)OCC)c23)c1C` [Example 4-13, ethyl 4-{2-methyl-3-[(2-methylacryloyl)amino]phenyl}-7H-pyrrolo[2,3-d]pyrimidine-5-carboxylate], the IC50 was 10 to 500 nM on JAK3 (given as range class) and > 500 nM on JAK2 (given as range class).

`C=CC(=O)Nc1cc(-c2ncnc3[nH]cc(C(=O)OCC)c23)ccc1Cl` [Example 4-14, ethyl 4-[3-(acryloylamino)-4-chlorophenyl]-7H-pyrrolo[2,3-d]pyrimidine-5-carboxylate]: the IC50 is 0.066 nM on JAK3 and > 1500 nM at JAK2.

For `C=CC(=O)Nc1cc(-c2ncnc3[nH]cc(C(=O)OCC)c23)ccc1OC` [Example 4-15, ethyl 4-[3-(acryloylamino)-4-methoxyphenyl]-7H-pyrrolo[2,3-d]pyrimidine-5-carboxylate], the IC50 on JAK3 was 0.11 nM; at JAK2, > 1500 nM.

`C=C(C)C(=O)Nc1cc(-c2ncnc3[nH]cc(C(=O)OCC)c23)ccc1F` [Example 4-16, ethyl 4-{4-fluoro-3-[(2-methylacryloyl)amino]phenyl}-7H-pyrrolo[2,3-d]pyrimidine-5-carboxylate]: the IC50 was 0.07 nM on JAK3 and > 1500 nM on JAK2.

Consider `C=C(C)C(=O)Nc1cc(-c2ncnc3[nH]cc(C(=O)OCC)c23)ccc1OC` [Example 4-17, ethyl 4-{4-methoxy-3-[(2-methylacryloyl)amino]phenyl}-7H-pyrrolo[2,3-d]pyrimidine-5-carboxylate], for which the IC50 is 0.11 nM on JAK3 and > 1500 nM on JAK2.

Take `C=C(C)C(=O)Nc1ccc(F)c(-c2ncnc3[nH]cc(C(=O)OCC)c23)c1` [Example 4-18, ethyl 4-{2-fluoro-5-[(2-methylacryloyl)amino]phenyl}-7H-pyrrolo[2,3-d]pyrimidine-5-carboxylate]: the IC50 at JAK3 is 0.11 nM; at JAK2 it was > 1500 nM.

With `C=C(C)C(=O)Nc1cc(F)cc(-c2ncnc3[nH]cc(C(=O)OCC)c23)c1` [Example 4-19, ethyl 4-{3-fluoro-5-[(2-methylacryloyl)amino]phenyl}-7H-pyrrolo[2,3-d]pyrimidine-5-carboxylate], the results for the IC50 on JAK3 and on JAK2 were 0.05 nM and > 1500 nM, respectively.

`C=CC(=O)N1CCc2ccc(-c3ncnc4[nH]cc(C(=O)OCC)c34)cc21` [Example 4-20, ethyl 4-(1-acryloyl-2,3-dihydro-1H-indol-6-yl)-7H-pyrrolo[2,3-d]pyrimidine-5-carboxylate]: the IC50 at JAK3 is 0.081 nM; at JAK2, > 1500 nM.

For `C=C(C)C(=O)N1CCc2ccc(-c3ncnc4[nH]cc(C(=O)OCC)c34)cc21` [Example 4-21, ethyl 4-[1-(2-methylacryloyl)-2,3-dihydro-1H-indol-6-yl]-7H-pyrrolo[2,3-d]pyrimidine-5-carboxylate], the IC50 on JAK3 is 2.3 nM; at JAK2, > 1500 nM.

`C=C(C)C(=O)Nc1ccc(C#N)c(-c2ncnc3[nH]cc(C(=O)OCC)c23)c1` [Example 4-22, ethyl 4-{2-cyano-5-[(2-methylacryloyl)amino]phenyl}-7H-pyrrolo[2,3-d]pyrimidine-5-carboxylate]: the values for the 50% inhibitory concentration (IC50) at JAK3 (given as range class) and at JAK2 (given as range class) were 10 to 500 nM and > 500 nM, respectively.

For `C=C(C)C(=O)n1ccc2ccc(-c3ncnc4[nH]cc(C(=O)OCC)c34)cc21` [Example 4-23, ethyl 4-[1-(2-methylacryloyl)-1H-indol-6-yl]-7H-pyrrolo[2,3-d]pyrimidine-5-carboxylate], the IC50 at JAK3 was 0.34 nM; at JAK2, > 1500 nM.

As to `C=C(C)C(=O)Nc1cc(C#N)cc(-c2ncnc3[nH]cc(C(=O)OCC)c23)c1` [Example 4-24, ethyl 4-{3-cyano-5-[(2-methylacryloyl)amino]phenyl}-7H-pyrrolo[2,3-d]pyrimidine-5-carboxylate], the IC50 at JAK3 is 0.068 nM; on JAK2 it was > 1500 nM.
